Here are results for 3 molecules from doi:10.1101/2023.12.04.569845, “Identification of 4-(6-((2-methoxyphenyl)amino)pyrazin-2-yl)benzoic acids as CSNK2A inhibitors with antiviral activity and improved selectivity over PIM3” (bioRxiv, 2023).

What all share (test): biochemical
Common to all, as to parameters: Thermal shift (DSF, SYPRO Orange) Tm shift of recombinant kinase domains at 10 uM compound

One test concerns the target T1, EPHB1 (Homo sapiens, UniProt P54762).
T1 sequence (P54762 1-984): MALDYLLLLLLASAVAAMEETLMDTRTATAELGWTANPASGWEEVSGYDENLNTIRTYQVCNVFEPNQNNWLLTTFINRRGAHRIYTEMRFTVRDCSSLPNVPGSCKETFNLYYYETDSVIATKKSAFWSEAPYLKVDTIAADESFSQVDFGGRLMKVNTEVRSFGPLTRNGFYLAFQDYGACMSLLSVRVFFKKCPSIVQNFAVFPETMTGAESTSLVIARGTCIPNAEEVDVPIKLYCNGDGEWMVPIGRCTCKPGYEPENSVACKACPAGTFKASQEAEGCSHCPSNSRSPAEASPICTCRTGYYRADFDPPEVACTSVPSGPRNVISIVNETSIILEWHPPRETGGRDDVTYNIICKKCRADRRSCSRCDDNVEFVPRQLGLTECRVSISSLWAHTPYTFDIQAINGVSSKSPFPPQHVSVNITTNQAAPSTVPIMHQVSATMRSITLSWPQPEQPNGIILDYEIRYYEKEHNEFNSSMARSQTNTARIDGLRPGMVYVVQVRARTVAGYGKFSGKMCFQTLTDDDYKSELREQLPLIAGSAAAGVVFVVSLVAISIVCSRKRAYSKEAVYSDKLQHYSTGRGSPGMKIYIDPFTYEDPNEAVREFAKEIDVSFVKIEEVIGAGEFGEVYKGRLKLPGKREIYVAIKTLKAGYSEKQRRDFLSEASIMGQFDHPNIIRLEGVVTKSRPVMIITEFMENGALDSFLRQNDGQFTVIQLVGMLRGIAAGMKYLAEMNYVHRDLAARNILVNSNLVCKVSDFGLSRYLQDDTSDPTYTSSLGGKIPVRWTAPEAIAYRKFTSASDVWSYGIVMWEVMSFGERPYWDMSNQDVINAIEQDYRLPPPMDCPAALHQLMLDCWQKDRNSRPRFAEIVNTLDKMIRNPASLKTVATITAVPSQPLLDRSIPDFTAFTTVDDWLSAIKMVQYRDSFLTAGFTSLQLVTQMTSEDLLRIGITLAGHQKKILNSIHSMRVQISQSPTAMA

The target of the next test is EphA2 (Homo sapiens, UniProt P29317).
For the next test, the target named is PAK1 (Homo sapiens, UniProt Q13153).
The target in the next test is T2, PLK4 (Homo sapiens, UniProt O00444).
T2 sequence (O00444 1-970): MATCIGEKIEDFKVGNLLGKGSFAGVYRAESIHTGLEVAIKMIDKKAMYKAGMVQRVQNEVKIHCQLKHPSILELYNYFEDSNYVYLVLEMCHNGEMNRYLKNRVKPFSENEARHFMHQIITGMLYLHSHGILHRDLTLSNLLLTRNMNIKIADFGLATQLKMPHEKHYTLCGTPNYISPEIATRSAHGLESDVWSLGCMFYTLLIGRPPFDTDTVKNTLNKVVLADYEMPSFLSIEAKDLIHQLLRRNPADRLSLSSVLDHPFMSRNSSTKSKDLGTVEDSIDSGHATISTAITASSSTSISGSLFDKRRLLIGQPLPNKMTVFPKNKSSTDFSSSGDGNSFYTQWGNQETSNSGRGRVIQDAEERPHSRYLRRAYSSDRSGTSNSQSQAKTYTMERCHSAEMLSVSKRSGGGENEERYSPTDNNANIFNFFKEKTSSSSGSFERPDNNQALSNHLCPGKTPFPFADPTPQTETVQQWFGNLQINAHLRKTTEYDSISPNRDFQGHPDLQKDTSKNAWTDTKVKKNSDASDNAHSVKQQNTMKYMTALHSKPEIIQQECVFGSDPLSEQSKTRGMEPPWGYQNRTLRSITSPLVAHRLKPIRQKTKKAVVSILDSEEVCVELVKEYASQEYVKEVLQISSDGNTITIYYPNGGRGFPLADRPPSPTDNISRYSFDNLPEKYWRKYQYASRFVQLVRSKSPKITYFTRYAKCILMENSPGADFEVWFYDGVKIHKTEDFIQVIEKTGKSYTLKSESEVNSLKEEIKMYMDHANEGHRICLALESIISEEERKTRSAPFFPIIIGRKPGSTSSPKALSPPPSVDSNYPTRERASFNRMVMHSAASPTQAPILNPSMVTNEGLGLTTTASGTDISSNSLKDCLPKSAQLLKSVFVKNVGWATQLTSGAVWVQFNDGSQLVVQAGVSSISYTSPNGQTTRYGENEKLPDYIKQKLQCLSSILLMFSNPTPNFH

Like-named read-outs stand apart in the source and are kept apart here.

Chain of EphA2 (P29317 whole entry): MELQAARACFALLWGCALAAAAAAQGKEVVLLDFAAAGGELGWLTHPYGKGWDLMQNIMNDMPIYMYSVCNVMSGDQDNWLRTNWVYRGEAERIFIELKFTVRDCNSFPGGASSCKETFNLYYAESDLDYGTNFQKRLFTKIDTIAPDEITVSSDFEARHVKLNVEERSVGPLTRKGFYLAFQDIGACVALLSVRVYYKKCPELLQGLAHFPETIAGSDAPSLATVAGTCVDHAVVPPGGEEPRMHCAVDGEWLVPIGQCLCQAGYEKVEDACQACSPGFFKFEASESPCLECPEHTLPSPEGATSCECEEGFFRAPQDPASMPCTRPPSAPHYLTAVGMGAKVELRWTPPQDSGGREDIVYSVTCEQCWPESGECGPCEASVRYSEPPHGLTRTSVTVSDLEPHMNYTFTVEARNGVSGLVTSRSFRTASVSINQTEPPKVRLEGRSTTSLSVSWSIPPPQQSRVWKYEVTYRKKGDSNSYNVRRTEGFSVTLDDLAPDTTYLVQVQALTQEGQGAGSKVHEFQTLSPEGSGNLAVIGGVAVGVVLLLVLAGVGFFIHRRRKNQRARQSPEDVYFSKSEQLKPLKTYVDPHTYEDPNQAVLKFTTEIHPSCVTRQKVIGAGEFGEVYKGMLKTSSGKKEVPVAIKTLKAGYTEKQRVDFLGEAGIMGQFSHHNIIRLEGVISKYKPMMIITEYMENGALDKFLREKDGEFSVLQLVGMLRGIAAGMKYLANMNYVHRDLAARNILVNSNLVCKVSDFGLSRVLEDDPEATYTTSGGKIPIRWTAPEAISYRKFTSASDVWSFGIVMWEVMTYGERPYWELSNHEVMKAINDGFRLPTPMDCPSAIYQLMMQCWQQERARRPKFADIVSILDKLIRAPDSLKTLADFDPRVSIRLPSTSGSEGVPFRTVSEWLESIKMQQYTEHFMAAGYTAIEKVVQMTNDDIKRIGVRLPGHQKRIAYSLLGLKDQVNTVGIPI
Chain of PAK1 (Q13153 whole entry): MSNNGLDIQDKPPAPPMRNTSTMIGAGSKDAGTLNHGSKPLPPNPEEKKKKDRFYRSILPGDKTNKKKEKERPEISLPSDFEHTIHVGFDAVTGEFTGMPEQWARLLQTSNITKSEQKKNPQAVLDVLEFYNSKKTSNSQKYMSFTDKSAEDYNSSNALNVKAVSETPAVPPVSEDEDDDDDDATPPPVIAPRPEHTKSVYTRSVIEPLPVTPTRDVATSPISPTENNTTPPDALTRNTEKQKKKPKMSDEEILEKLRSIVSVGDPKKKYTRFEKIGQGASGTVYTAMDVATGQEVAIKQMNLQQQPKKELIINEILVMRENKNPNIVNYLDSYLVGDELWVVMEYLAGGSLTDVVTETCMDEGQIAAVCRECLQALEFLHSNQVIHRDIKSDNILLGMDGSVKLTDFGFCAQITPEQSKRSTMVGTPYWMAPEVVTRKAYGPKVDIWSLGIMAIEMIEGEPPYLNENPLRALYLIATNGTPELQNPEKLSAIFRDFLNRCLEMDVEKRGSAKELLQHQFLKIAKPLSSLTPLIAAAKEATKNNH

On to `CC(C)Oc1ccc2ccn(-c3cncc(-c4ccc(C(=O)O)cc4)n3)c2c1` [6c], for which the ΔTm at 10 µM at EPHB1 (read-out: 6c) was determined as 2 °C; at EphA2 (read-out: 6c), 3 °C; at PAK1 (read-out: 6c) it was 0 °C; on PLK4 (read-out: 6c), 10 °C.

Regarding `COc1ccc(OC(C)C)cc1Nc1cncc(-c2ccc(C(=O)O)cc2)n1` [7c], the ΔTm at 10 µM at EPHB1 (read-out: 7c) is 1 °C; at EphA2 (read-out: 7c), 1 °C; on PAK1 (read-out: 7c), -1 °C; on PLK4 (read-out: 7c), 6 °C.

As to `CC(C)Nc1ccc2cnn(-c3cncc(-c4ccc(C(=O)O)cc4)n3)c2c1` [compound 2, 2], the ΔTm at 10 µM turned out to be 2 °C at EPHB1 (read-out: 2), 1 °C on EphA2 (read-out: 2), 1 °C on PAK1 (read-out: 2) and 11 °C at PLK4 (read-out: 2).
